Assay results: PubChem BioAssay (NCI)
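Test compounds were applied to cells in 96-well plates for 48 hours at 5 doses. TGI: concentration producing complete growth inhibition.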

Legend:
Test in all cases: inhibition of tumour cell growth, NCI panel, 48 h
[1] = system: OVCAR-3 ovarian
[2] = system: SK-MEL-2 melanoma
[3] = system: UACC-62 melanoma
[4] = system: HCT-116 colon
[5] = system: RXF 393 renal
[6] = system: SF-268 CNS
[7] = system: HOP-92 NSCLC
[8] = system: SK-MEL-28 melanoma
[9] = system: MCF7 breast
[10] = system: COLO 205 colon
[11] = system: SNB-19 CNS
[12] = system: LOX IMVI melanoma
[13] = system: ACHN renal
[14] = system: OVCAR-5 ovarian
[15] = system: NCI/ADR-RES ovarian
[16] = system: SK-OV-3 ovarian
[17] = system: KM12 colon
[18] = system: HT29 colon
[19] = system: NCI-H460 lung
[20] = system: NCI-H23 lung
[21] = system: RPMI-8226 leukemia
[22] = system: HL-60(TB) leukemia
[23] = system: MOLT-4 leukemia
[24] = system: EKVX NSCLC
[25] = system: SF-295 CNS
[26] = system: T-47D breast
[27] = system: IGROV1 ovarian
[28] = system: OVCAR-8 ovarian
[29] = system: 786-0 renal
[30] = system: A549 NSCLC
[31] = system: SW-620 colon
[32] = system: PC-3 prostate
[33] = system: K-562 leukemia
[34] = system: SK-MEL-5 melanoma
[35] = system: MALME-3M melanoma
[36] = system: MDA-N
[37] = system: MDA-MB-231 breast
[38] = system: UO-31 renal
[39] = system: MDA-MB-435
[40] = system: U251 CNS
[41] = system: BT-549 breast
[42] = system: HCT-15 colon
[43] = system: TK-10 renal
[44] = system: NCI-H522 lung
[45] = system: CCRF-CEM leukemia
[46] = system: CAKI-1 renal
[47] = system: SN12C renal
[48] = system: UACC-257 melanoma
[49] = system: HOP-62 NSCLC
[50] = system: M14 melanoma
[51] = system: SR leukemia
[52] = system: DU-145 prostate
[53] = system: A498 renal
[54] = system: SF-539 CNS
[55] = system: OVCAR-4 ovarian
[56] = system: HS 578T breast
[57] = system: HCC-2998 colon
[58] = system: SNB-75 CNS
[59] = system: NCI-H226 lung

SMILES: CCOC(=O)Nc1ccc(S(=O)(=O)Nc2ccc(Br)cc2)cc1
- TGI [1]: > 100 µM
- TGI [2]: > 100 µM
- TGI [3]: > 100 µM
- TGI [4]: > 100 µM
- TGI [5]: > 100 µM
- TGI [6]: > 100 µM
- TGI [7]: > 100 µM
- TGI [8]: > 100 µM
- TGI [9]: 75.7 µM
- TGI [10]: 30.4 µM
- TGI [11]: > 100 µM
- TGI [12]: > 100 µM
- TGI [13]: 85.2 µM
- TGI [14]: > 100 µM
- TGI [15]: > 100 µM
- TGI [16]: > 100 µM
- TGI [17]: > 100 µM
- TGI [18]: > 100 µM
- TGI [19]: 72 µM
- TGI [20]: > 100 µM
- TGI [21]: > 100 µM
- TGI [22]: > 100 µM
- TGI [23]: > 100 µM
- TGI [24]: 89.5 µM
- TGI [25]: 97.8 µM
- TGI [26]: > 100 µM
- TGI [27]: > 100 µM
- TGI [28]: 68.4 µM
- TGI [29]: > 100 µM
- TGI [30]: > 100 µM
- TGI [31]: > 100 µM
- TGI [32]: > 100 µM
- TGI [33]: 34.4 µM
- TGI [34]: 88.7 µM
- TGI [35]: > 100 µM
- TGI [36]: > 100 µM
- TGI [37]: 93.5 µM
- TGI [38]: > 100 µM
- TGI [39]: > 100 µM
- TGI [40]: > 100 µM
- TGI [41]: > 100 µM
- TGI [42]: > 100 µM
- TGI [43]: > 100 µM
- TGI [44]: > 100 µM
- TGI [45]: > 100 µM
- TGI [46]: > 100 µM
- TGI [47]: > 100 µM
- TGI [48]: > 100 µM
- TGI [49]: 86.7 µM
- TGI [50]: > 100 µM
- TGI [51]: 50.4 µM
- TGI [52]: > 100 µM
- TGI [53]: 48.4 µM
- TGI [54]: 35.4 µM
- TGI [55]: 57.1 µM
- TGI [56]: > 100 µM

SMILES: Cc1nn(-c2ccccc2)c(C)c1/C=N/NC(=O)c1sc(=S)n(-c2ccc(Cl)cc2)c1N
- TGI [1]: > 100 µM
- TGI [2]: > 100 µM
- TGI [3]: 74.1 µM
- TGI [4]: > 100 µM
- TGI [5]: 6 µM
- TGI [6]: > 100 µM
- TGI [8]: > 100 µM
- TGI [9]: > 100 µM
- TGI [10]: 38.9 µM
- TGI [11]: > 100 µM
- TGI [12]: 8.73 µM
- TGI [13]: > 100 µM
- TGI [14]: > 100 µM
- TGI [15]: > 100 µM
- TGI [16]: > 100 µM
- TGI [17]: > 100 µM
- TGI [18]: > 100 µM
- TGI [19]: 95.1 µM
- TGI [20]: > 100 µM
- TGI [21]: 7.73 µM
- TGI [22]: > 100 µM
- TGI [23]: > 100 µM
- TGI [24]: 8.91 µM
- TGI [25]: 5.37 µM
- TGI [26]: > 100 µM
- TGI [27]: 4.26 µM
- TGI [28]: > 100 µM
- TGI [29]: 59.9 µM
- TGI [30]: > 100 µM
- TGI [31]: > 100 µM
- TGI [32]: > 100 µM
- TGI [33]: > 100 µM
- TGI [34]: 26 µM
- TGI [35]: > 100 µM
- TGI [36]: > 100 µM
- TGI [37]: > 100 µM
- TGI [38]: 55.7 µM
- TGI [39]: > 100 µM
- TGI [40]: > 100 µM
- TGI [41]: > 100 µM
- TGI [42]: > 100 µM
- TGI [57]: 88.4 µM
- TGI [43]: 14.4 µM
- TGI [45]: > 100 µM
- TGI [46]: 9.68 µM
- TGI [47]: > 100 µM
- TGI [48]: > 100 µM
- TGI [49]: > 100 µM
- TGI [50]: > 100 µM
- TGI [51]: > 100 µM
- TGI [58]: 5.49 µM
- TGI [52]: > 100 µM
- TGI [53]: > 100 µM
- TGI [54]: > 100 µM
- TGI [59]: > 100 µM
- TGI [55]: 95.7 µM
- TGI [56]: 7.6 µM
